Measurements as given in ChEMBL document CHEMBL1201862, “PubChem BioAssay data set” (2004).
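Results reflect a 48-hour exposure of cells in 96-well plates to compound at five concentrations. GI50 = concentration required for 50% inhibition of growth.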 Active and inactive are the calls of the source. Cut-off read from the data, not from the text of the source: active = GI50 up to about 1.1 µM and inactive = higher.

Columns and labels:
Assay in all cases: DTP human tumour cell line panel, 48 h
M14 = test system: M14
CAKI-1 = test system: CAKI-1
RXF 393 = test system: RXF 393
SW-620 = test system: SW-620
UO-31 = test system: UO-31
HCC 2998 = test system: HCC 2998
ACHN = test system: ACHN
MDA-MB-231 = test system: MDA-MB-231
NCI/ADR-RES = test system: NCI/ADR-RES
MDA-MB-435 = test system: MDA-MB-435
HT-29 = test system: HT-29
HOP-62 = test system: HOP-62
OVCAR-5 = test system: OVCAR-5
EKVX = test system: EKVX
HCT-116 = test system: HCT-116
PC-3 = test system: PC-3
OVCAR-4 = test system: OVCAR-4
Hs-578T = test system: Hs-578T
U-251 = test system: U-251
MOLT-4 = test system: MOLT-4

Measured: GI50

O=S1(=O)CCN(Cc2ccccn2)CC1
inactive: M14 > 100 µM | CAKI-1 > 100 µM | RXF 393 > 100 µM | SW-620 > 100 µM | UO-31 > 100 µM | HCC 2998 > 100 µM | ACHN > 100 µM | MDA-MB-231 > 100 µM | NCI/ADR-RES > 100 µM | MDA-MB-435 > 100 µM | HT-29 > 100 µM | HOP-62 > 100 µM | OVCAR-5 > 100 µM | EKVX > 100 µM | HCT-116 > 100 µM | PC-3 > 100 µM | OVCAR-4 > 100 µM | Hs-578T > 100 µM | U-251 > 100 µM

Oc1nc2cc3nc(O)c(O)nc3cc2nc1O
inactive: M14 > 100 µM | CAKI-1 > 100 µM | RXF 393 > 100 µM | SW-620 > 100 µM | UO-31 > 100 µM | HCC 2998 > 100 µM | ACHN > 100 µM | MDA-MB-231 > 100 µM | NCI/ADR-RES > 100 µM | MDA-MB-435 > 100 µM | HT-29 > 100 µM | MOLT-4 > 100 µM | OVCAR-5 > 100 µM | EKVX > 100 µM | HCT-116 > 100 µM | PC-3 > 100 µM | Hs-578T > 100 µM | U-251 > 100 µM

CCNC1=C(NC(=O)c2ccccc2)C(=O)c2ccccc2C1=O
inactive: M14 26.2 µM | RXF 393 24.2 µM | SW-620 23.4 µM | HCC 2998 33 µM | MDA-MB-231 6.12 µM | NCI/ADR-RES 16.7 µM | MDA-MB-435 7.21 µM | HT-29 36.6 µM | MOLT-4 63.4 µM | HOP-62 66.2 µM | OVCAR-5 > 100 µM | HCT-116 25.8 µM | PC-3 18.2 µM | OVCAR-4 81.3 µM | Hs-578T 38.7 µM | U-251 33 µM

COc1cc2c(cc1OC)C(Cl)C(c1ccc(F)cc1)=C2Cl (centres undefined)
inactive: M14 15.4 µM | CAKI-1 13.8 µM | RXF 393 15.4 µM | SW-620 12.3 µM | UO-31 13.5 µM | HCC 2998 15.1 µM | ACHN 13.2 µM | MDA-MB-231 13.8 µM | NCI/ADR-RES 13.6 µM | MDA-MB-435 11.4 µM | HT-29 15.9 µM | MOLT-4 5.41 µM | HOP-62 16.5 µM | OVCAR-5 16.6 µM | EKVX 7.19 µM | HCT-116 12.9 µM | PC-3 12.4 µM | Hs-578T 11.7 µM | U-251 13.1 µM

CC(C)(C)OC(=O)NC(Cc1ccc(OCc2ccccc2)cn1)C(=O)N1CCCCC1 (centres undefined)
inactive: M14 37.8 µM | CAKI-1 60.4 µM | RXF 393 19.5 µM | SW-620 89.3 µM | UO-31 27.9 µM | HCC 2998 19.9 µM | ACHN 41.4 µM | MDA-MB-231 43.4 µM | NCI/ADR-RES 20.9 µM | MDA-MB-435 19.4 µM | HT-29 32 µM | MOLT-4 19.5 µM | HOP-62 49.9 µM | OVCAR-5 65.2 µM | EKVX 37.1 µM | HCT-116 40.8 µM | PC-3 22.2 µM | Hs-578T 67.3 µM | U-251 42.4 µM

O=C(NCCCCNCCCNC(=O)c1cc(-c2ccccc2)nc2ccccc12)c1cc(-c2ccccc2)nc2ccccc12
inactive: M14 2.1 µM | CAKI-1 1.84 µM | RXF 393 2.19 µM | SW-620 1.71 µM | UO-31 1.7 µM | HCC 2998 1.64 µM | ACHN 1.9 µM | MDA-MB-231 1.85 µM | NCI/ADR-RES 2.26 µM | MDA-MB-435 1.79 µM | HT-29 1.6 µM | MOLT-4 1.42 µM | HOP-62 1.63 µM | EKVX 1.99 µM | HCT-116 1.8 µM | PC-3 1.63 µM | Hs-578T 1.96 µM | U-251 1.91 µM
